# Laboratory results reported in ChEMBL document CHEMBL5725308, “Inhibitors of the fibroblast growth factor receptor” (2017).
# Molecular target: Fibroblast growth factor receptor 4 (Homo sapiens, UniProt P22455)
# Assay: The reaction was stopped by the addition of 70 ul of Stop buffer (100 mM HEPES pH 7.5, 0.015% Brij 35, 35 mM EDTA and 0.2% of Coating Reagent 3 (Caliper Lifesciences)). The plate was then read on a Caliper LabChip EZ Reader II (protocol settings: −1.9 psi, upstream voltage −700, downstream Voltage -3000, post sample sip 35S).
# Type: biochemical
# Sequence of Fibroblast growth factor receptor 4 (P22455 whole entry): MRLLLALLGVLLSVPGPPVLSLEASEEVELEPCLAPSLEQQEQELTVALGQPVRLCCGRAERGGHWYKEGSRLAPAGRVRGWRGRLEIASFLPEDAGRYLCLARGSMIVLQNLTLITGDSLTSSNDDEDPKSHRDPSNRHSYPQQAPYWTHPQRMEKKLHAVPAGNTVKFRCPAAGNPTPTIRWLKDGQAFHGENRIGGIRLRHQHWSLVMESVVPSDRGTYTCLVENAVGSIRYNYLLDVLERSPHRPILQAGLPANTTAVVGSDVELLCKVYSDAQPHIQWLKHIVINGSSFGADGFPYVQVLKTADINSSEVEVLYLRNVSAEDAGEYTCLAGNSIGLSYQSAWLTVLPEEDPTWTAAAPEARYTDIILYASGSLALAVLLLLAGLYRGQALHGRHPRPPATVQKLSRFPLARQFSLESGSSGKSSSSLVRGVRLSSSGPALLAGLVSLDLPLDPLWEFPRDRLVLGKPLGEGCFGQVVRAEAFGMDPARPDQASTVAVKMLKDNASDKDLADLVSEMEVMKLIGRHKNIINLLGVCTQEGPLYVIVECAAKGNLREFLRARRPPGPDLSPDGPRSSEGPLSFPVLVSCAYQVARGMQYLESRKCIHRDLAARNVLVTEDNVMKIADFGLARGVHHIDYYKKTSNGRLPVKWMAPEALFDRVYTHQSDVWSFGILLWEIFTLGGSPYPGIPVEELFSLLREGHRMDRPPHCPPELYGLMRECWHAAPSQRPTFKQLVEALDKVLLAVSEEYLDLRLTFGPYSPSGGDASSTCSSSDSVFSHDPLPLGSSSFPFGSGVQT
row,SMILES,IC50
1,C=CC(=O)Nc1cccc(-c2cc3c(cn2)cc(-c2c(Cl)c(OC)cc(OC)c2Cl)c(=O)n3C2CCCC2)c1,< 10 nM
2,C=CC(=O)N1CCc2ccc(-c3ncc4cc(-c5c(Cl)c(OC)cc(OC)c5Cl)c(=O)n(CC)c4n3)cc21,< 10 nM
3,C=CC(=O)Nc1ccccc1-c1ncc2cc(-c3c(Cl)c(OC)cc(OC)c3Cl)cc(OC)c2n1,> 1000 nM
4,C=CC(=O)Nc1ccccc1-c1cc2c(cn1)cc(-c1c(Cl)c(OC)cc(OC)c1Cl)c(=O)n2C1CCCC1,< 10 nM
5,C=CC(=O)N1CC(C)(C)Oc2ccc(-c3cc4c(cn3)cc(-c3c(Cl)c(OC)cc(OC)c3Cl)c(=O)n4CC)cc21,< 10 nM
